Data as given in PubChem BioAssay (NCI).
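Exposure lasted 48 hours, with cells grown in 96-well plates and compounds tested at five concentrations. TGI marks complete inhibition of growth.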

Experiments:
Assay in all cases: NCI-60 cell line screen, 48 h
TK-10 renal = test system: TK-10 renal
HS 578T breast = test system: HS 578T breast
MOLT-4 leukemia = test system: MOLT-4 leukemia
NCI-H23 lung = test system: NCI-H23 lung
MDA-MB-231 breast = test system: MDA-MB-231 breast
OVCAR-8 ovarian = test system: OVCAR-8 ovarian
A498 renal = test system: A498 renal
SF-539 CNS = test system: SF-539 CNS
UACC-257 melanoma = test system: UACC-257 melanoma
HOP-62 NSCLC = test system: HOP-62 NSCLC
HOP-92 NSCLC = test system: HOP-92 NSCLC
M14 melanoma = test system: M14 melanoma
OVCAR-5 ovarian = test system: OVCAR-5 ovarian
SK-MEL-2 melanoma = test system: SK-MEL-2 melanoma
MDA-MB-435 = test system: MDA-MB-435
K-562 leukemia = test system: K-562 leukemia
SF-268 CNS = test system: SF-268 CNS
NCI-H226 lung = test system: NCI-H226 lung
SK-MEL-5 melanoma = test system: SK-MEL-5 melanoma
CAKI-1 renal = test system: CAKI-1 renal

| Structure (SMILES) | TGI (TK-10 renal) [µM] | TGI (HS 578T breast) [µM] | TGI (MOLT-4 leukemia) [µM] | TGI (NCI-H23 lung) [µM] | TGI (MDA-MB-231 breast) [µM] | TGI (OVCAR-8 ovarian) [µM] | TGI (A498 renal) [µM] | TGI (SF-539 CNS) [µM] | TGI (UACC-257 melanoma) [µM] | TGI (HOP-62 NSCLC) [µM] | TGI (HOP-92 NSCLC) [µM] | TGI (M14 melanoma) [µM] | TGI (OVCAR-5 ovarian) [µM] | TGI (SK-MEL-2 melanoma) [µM] | TGI (MDA-MB-435) [µM] | TGI (K-562 leukemia) [µM] | TGI (SF-268 CNS) [µM] | TGI (NCI-H226 lung) [µM] | TGI (SK-MEL-5 melanoma) [µM] | TGI (CAKI-1 renal) [µM] |
| --- | --- | --- | --- | --- | --- | --- | --- | --- | --- | --- | --- | --- | --- | --- | --- | --- | --- | --- | --- | --- |
| Cn1c(=O)[nH]c2[nH]c3ccccc3c2c1=O | > 100 | > 100 | > 100 | > 100 | > 100 | > 100 | > 100 | > 100 | > 100 | > 100 | > 100 | > 100 | > 100 | > 100 | > 100 | > 100 | > 100 | > 100 | > 100 | > 100 |
| COc1ccc(N=C2C(=O)C3=C(OC(C)(C)CC3)c3ccccc32)cc1 | 7.93 | 48.8 | 5.29 | 13 | 5.44 | 8.37 | 14.7 | 0.806 | 2.09 | 1.89 | 22.2 | 1.5 | 6.14 | 2.46 | 0.502 | 2.24 | 10.7 | 20.4 | 1.53 | 1.84 |
| C=C1C[C@@H](O)[C@@H](Br)C(C)(C)[C@]12CCC(C)(Cl)C(Br)C2 (stereo partly drawn) | > 100 | > 100 | > 100 | > 74.9 | > 85.2 | > 100 | 97.5 | 32.3 | > 70.7 | > 65.2 | > 73.6 | > 100 | 19.8 | 32.3 | > 71.2 | > 100 | > 77.4 | > 84.8 | 23.4 | > 90.4 |
| N#Cc1c(-c2ccccc2)c(N=Nc2ccc(F)cc2)c(=O)n2c1[nH]c1ccccc12 | 25.8 | 31.4 | 7.78 | > 75.7 | > 50.9 | 24 | 41 | 32.2 | > 100 | 29.3 | 14.2 | 27.3 | 50.5 | > 100 | > 100 | 17.9 | 39.5 | 39.1 | 4.94 | 16.4 |
| CCCCOC(=O)C1CN2C=CC=NC2=NC1(C(F)(F)F)C(F)(F)F (stereo not drawn) | > 100 | > 100 | > 100 | > 100 | > 100 | > 100 | > 100 | > 100 | > 100 | > 100 | > 100 | > 100 | > 100 | > 100 | > 100 | > 100 | > 100 | > 100 | > 100 | > 100 |
| O=C1CCCC2=C(N1)C(=O)C=CC2=O | 56.9 | 79.4 | 31.5 | 56.7 | 33.5 | 64.2 | > 70.4 | 59.1 | 61.1 | 61.9 | 38.8 | 55.1 | 48.6 | 60.4 | 32.7 | 32 | 67.9 | > 68.5 | 57.1 | 49.6 |
| C=C(C)CC1=C(OCC)C(OC)(OCC)C1=O (stereo not drawn) | > 100 | > 100 | > 100 | > 100 | > 100 | > 100 | > 100 | > 100 | > 100 | > 100 | > 100 | > 100 | > 100 | > 100 | > 100 | – | > 100 | > 100 | > 100 | > 100 |
| CC1=C2C(=O)OCC23C=COC3(C)O1 (stereo not drawn) | > 100 | > 100 | > 100 | > 100 | > 100 | > 100 | > 100 | 65.9 | > 100 | > 100 | > 100 | 85.5 | > 100 | > 100 | 53.3 | > 100 | > 100 | 97.8 | 35.6 | 68.8 |
| Nc1cc2c3c(cccc3c1)C(=O)N(c1ccc(OCCN3CCCCC3)cc1)C2=O | 31.3 | 63.4 | 35.7 | 30.2 | 31.5 | 36.4 | 31.9 | 27.9 | 31.6 | 31.8 | 34.2 | 32.3 | 44 | 31.6 | 55.7 | 29.8 | 37.7 | 42.1 | 35.2 | 32.4 |
| Cc1cccc(N=Nc2c(C)nn(C(=O)CC(=O)Nc3ccccc3)c2C)c1 | > 100 | > 100 | > 100 | > 100 | > 100 | > 100 | > 100 | > 100 | – | > 100 | > 100 | > 100 | > 100 | > 100 | > 100 | – | > 100 | > 100 | > 100 | > 100 |
| O=C1OCC2(CO1)CC1C=CC2C1 (stereo not drawn) | > 100 | > 100 | > 100 | > 100 | > 100 | – | > 100 | > 100 | > 100 | > 100 | > 100 | > 100 | > 100 | > 100 | > 100 | > 100 | > 100 | > 100 | > 100 | > 100 |
| O=CN1CCN(C(=O)c2cc(Cl)cc(Cl)c2)C1=S | 28.7 | 71.4 | 42.7 | 32.5 | 33.8 | 33.6 | 29.6 | 39.7 | 32.3 | 29.7 | 31.9 | 29.2 | 44.2 | 33 | 28.1 | 97.5 | 30.6 | 32.7 | – | 26 |
| CC(=O)OCCCCn1cnc2nc(Nc3ccccc3)nc(Cl)c21 | > 100 | > 100 | > 100 | – | > 100 | > 100 | > 100 | > 100 | > 100 | > 100 | > 100 | > 100 | – | > 100 | > 100 | > 100 | > 100 | > 100 | > 100 | 81.4 |
| OCC1OC(Oc2cc(O)cc(/C=C\c3ccc(O)cc3)c2)C(O)C(O)C1O (stereo not drawn) | > 100 | > 100 | > 100 | – | > 100 | > 100 | > 100 | > 100 | > 100 | > 100 | > 100 | – | > 100 | > 100 | > 100 | > 100 | – | > 100 | > 100 | > 100 |
| COC(=O)C1=NN2c3ccccc3C(=O)OCCC2(C)C1 (stereo not drawn) | > 100 | > 100 | > 100 | > 100 | > 100 | > 100 | > 100 | > 100 | – | > 100 | > 100 | – | > 100 | > 100 | > 100 | > 100 | > 100 | > 100 | > 100 | > 100 |
| C[C@]12CCC(=O)C=C1CC[C@@H]1[C@@H]2CC[C@]2(C)C(=O)[C@H](n3ccnc3)C[C@@H]12 | > 100 | > 100 | > 100 | > 100 | > 100 | > 100 | > 100 | > 100 | > 100 | – | > 100 | > 100 | > 100 | > 100 | > 100 | > 100 | > 100 | > 100 | > 100 | > 100 |
| COC1=NC(NC2OCC(O)C(O)C2O)=C(NC(C)=O)CN1C (stereo not drawn) | > 100 | > 100 | > 100 | > 100 | > 100 | > 100 | > 100 | > 100 | – | – | > 100 | > 100 | > 100 | > 100 | > 100 | > 100 | > 100 | > 100 | > 100 | > 100 |
| COc1ccc(-c2c(C#N)c(-c3ccc(C)cc3)n(NS(=O)(=O)c3ccccc3)c(=O)c2C#N)cc1 | > 100 | > 100 | 60.4 | – | > 100 | > 100 | > 100 | > 100 | > 100 | > 100 | > 100 | > 100 | > 100 | > 100 | > 100 | > 100 | > 100 | > 100 | 44.8 | > 100 |
| Cc1cn(C2CC(O)C(Cn3cc(Cn4ncc(=O)[nH]c4=O)nn3)O2)c(=O)[nH]c1=O (stereo not drawn) | > 100 | > 100 | > 100 | > 100 | > 100 | > 100 | > 100 | > 100 | > 100 | > 100 | > 100 | > 100 | > 100 | > 100 | > 100 | – | > 100 | > 100 | > 100 | > 100 |
